From US9492471B2, “Methods of treating a disease or disorder associated with Bruton'S Tyrosine Kinase” (Celgene Avilomics Research, Inc., priority 2013, dated 2016)
Where two headings read alike, the source gives them in different places.

Assays:
Test in all cases: HotSpot kinase profiling
Assay type in all cases: biochemical
RSK1 = target: T1, RSK1 (Homo sapiens, UniProt Q15418)
T1 construct: purchased Reaction Biology Corp
Procedure, shortened: (§1)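 Activity is measured by radiolabel transfer captured on P81 filters after a 2 h room-temperature reaction of kinase, substrate and cofactors. Values are percent inhibition against DMSO.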

MYLK3 = target: T2, MYLK3 (Homo sapiens, UniProt Q32MK0)
T2 construct: purchased Reaction Biology Corp
T2 sequence (Q32MK0 1-819): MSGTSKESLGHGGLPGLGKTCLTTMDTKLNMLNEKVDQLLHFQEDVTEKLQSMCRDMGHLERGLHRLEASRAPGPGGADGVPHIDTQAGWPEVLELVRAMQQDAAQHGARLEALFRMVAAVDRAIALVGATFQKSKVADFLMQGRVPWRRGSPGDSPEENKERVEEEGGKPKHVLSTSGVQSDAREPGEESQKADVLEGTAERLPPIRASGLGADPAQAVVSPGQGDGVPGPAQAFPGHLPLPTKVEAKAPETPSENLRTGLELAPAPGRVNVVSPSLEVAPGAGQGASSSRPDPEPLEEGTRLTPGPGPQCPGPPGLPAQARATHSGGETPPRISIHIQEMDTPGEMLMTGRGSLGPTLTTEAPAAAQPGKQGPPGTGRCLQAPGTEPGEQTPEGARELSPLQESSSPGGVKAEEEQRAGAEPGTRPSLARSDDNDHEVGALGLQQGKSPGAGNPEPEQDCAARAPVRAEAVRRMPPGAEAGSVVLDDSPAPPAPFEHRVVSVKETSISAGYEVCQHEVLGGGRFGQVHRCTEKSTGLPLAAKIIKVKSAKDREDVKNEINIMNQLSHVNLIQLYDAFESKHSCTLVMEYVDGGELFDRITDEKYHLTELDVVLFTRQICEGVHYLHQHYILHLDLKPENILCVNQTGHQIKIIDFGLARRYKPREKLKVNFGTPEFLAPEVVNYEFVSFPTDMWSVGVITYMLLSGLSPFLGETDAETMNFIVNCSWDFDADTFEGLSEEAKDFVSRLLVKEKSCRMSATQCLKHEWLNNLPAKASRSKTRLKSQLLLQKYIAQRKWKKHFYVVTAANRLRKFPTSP
Procedure, shortened: as §1

DYRK1/DYRK1A = target: T3, DYRK1/DYRK1A (Homo sapiens, UniProt Q13627)
T3 construct: purchased Reaction Biology Corp

MST2/STK3 = target: T4, MST2/STK3 (Homo sapiens, UniProt Q13188)
T4 construct: purchased Reaction Biology Corp
T4 sequence (Q13188 1-491): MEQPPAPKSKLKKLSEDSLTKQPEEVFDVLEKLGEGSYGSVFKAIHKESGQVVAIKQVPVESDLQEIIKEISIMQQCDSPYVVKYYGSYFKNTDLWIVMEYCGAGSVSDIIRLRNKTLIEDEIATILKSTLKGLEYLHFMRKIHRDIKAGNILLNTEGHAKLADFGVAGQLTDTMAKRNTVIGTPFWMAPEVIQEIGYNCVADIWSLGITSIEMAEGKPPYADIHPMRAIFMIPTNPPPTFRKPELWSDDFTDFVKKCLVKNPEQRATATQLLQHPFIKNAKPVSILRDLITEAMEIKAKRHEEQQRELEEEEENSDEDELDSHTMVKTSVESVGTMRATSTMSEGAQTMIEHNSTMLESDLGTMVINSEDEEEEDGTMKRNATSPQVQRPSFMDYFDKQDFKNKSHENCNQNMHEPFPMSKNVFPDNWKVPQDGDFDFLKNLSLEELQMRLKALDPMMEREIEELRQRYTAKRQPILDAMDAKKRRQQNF
Procedure, shortened: as §1

RON/MST1R = target: T5, RON/MST1R (Homo sapiens, UniProt Q04912)
T5 construct: purchased Reaction Biology Corp
Procedure, shortened: as §1

[1] = read-out: % Enzyme Activity (relative to DMSO controls) Run 1
[2] = read-out: % Enzyme Activity (relative to DMSO controls) Run 2

T1 sequence (Q15418 whole entry): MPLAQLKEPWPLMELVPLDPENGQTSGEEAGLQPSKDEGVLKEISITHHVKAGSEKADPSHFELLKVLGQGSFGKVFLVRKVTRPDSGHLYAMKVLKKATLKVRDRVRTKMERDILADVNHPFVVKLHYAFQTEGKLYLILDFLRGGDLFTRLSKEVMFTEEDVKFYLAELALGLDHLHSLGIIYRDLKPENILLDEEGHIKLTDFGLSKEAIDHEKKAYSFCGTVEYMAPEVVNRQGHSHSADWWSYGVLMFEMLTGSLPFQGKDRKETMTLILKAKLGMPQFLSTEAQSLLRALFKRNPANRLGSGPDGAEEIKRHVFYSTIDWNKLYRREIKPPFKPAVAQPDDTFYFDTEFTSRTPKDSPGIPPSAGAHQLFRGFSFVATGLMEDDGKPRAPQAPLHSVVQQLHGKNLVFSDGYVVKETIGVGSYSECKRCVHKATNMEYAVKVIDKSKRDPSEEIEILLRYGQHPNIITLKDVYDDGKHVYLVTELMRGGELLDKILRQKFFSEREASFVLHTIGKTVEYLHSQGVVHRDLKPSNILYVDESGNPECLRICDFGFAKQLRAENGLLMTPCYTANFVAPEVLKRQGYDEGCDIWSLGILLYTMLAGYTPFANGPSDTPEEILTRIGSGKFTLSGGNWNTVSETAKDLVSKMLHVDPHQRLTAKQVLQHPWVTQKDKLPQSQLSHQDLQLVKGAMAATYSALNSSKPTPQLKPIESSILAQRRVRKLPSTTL
T5 sequence (Q04912 25-1400): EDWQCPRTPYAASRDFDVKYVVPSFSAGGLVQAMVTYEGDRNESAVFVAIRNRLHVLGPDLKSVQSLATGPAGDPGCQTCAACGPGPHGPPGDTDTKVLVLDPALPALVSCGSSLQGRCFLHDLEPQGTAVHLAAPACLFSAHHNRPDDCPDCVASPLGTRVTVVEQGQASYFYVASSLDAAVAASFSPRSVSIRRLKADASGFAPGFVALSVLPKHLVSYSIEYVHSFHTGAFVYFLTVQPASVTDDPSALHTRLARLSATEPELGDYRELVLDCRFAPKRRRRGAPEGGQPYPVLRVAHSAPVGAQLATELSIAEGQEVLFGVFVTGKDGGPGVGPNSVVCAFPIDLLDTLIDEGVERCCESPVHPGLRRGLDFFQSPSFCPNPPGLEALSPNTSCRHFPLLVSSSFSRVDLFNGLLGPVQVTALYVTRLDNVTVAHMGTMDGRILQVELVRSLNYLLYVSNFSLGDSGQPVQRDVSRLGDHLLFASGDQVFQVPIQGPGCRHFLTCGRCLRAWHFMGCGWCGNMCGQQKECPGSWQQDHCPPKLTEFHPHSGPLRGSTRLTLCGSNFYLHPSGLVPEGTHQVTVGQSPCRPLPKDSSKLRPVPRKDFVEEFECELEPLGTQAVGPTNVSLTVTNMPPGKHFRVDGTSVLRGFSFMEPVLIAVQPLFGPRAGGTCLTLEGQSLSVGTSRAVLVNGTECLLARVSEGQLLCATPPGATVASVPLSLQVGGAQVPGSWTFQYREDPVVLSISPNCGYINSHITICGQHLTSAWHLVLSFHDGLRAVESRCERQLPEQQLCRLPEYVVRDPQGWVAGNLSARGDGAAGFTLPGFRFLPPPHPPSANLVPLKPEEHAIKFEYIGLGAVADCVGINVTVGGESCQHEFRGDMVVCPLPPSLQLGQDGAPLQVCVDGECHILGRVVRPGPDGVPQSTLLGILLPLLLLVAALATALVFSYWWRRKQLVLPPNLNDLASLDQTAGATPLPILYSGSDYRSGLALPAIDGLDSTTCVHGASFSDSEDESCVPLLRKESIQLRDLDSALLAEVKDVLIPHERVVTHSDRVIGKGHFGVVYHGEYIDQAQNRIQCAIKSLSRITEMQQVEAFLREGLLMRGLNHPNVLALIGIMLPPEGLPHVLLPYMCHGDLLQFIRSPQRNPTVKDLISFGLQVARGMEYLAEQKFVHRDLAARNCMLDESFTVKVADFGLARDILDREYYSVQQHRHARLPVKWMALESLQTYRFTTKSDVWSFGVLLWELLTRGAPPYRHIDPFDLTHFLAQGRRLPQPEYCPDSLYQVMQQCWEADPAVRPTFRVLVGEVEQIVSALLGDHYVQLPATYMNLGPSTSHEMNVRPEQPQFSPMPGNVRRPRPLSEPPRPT

In the case of C=CC(=O)Nc1cccc(Nc2nc(Nc3ccc(OCCOC)c(F)c3)ncc2F)c1 [Compound 2], the inhibition at 3 µM (RSK1) was 27.1%, the remaining activity at 3 µM (RSK1; [1]) was 73.3% and the remaining activity at 3 µM (RSK1; [2]) was 72.5%. The inhibition at 3 µM (MYLK3) was -15%, the remaining activity at 3 µM (MYLK3; [1]) was 113% and the remaining activity at 3 µM (MYLK3; [2]) was 116%. It also gave an inhibition at 3 µM (DYRK1/DYRK1A) of 12%, a remaining activity at 3 µM (DYRK1/DYRK1A; [1]) of 87.7% and a remaining activity at 3 µM (DYRK1/DYRK1A; [2]) of 88.4%. The inhibition at 3 µM (MST2/STK3) was 10.1%, the remaining activity at 3 µM (MST2/STK3; [1]) was 91.1% and the remaining activity at 3 µM (MST2/STK3; [2]) was 88.6%. For the same compound, the inhibition at 3 µM (RON/MST1R) was -2.24%, the remaining activity at 3 µM (RON/MST1R; [1]) was 103% and the remaining activity at 3 µM (RON/MST1R; [2]) was 101%.
